Values quoted from earlier work, collected in PMC6108082 (Journal of medicinal chemistry, 2018).

Test system: P-glycoprotein

For `CCCc1ccc(-c2ccc(N(C[C@@H](N)[C@@H](C)CC)C(=O)[C@@H]3C[C@H]3c3ccccn3)cc2)cc1.Cl` [compound 1, 2-PCCA], the P-glycoprotein substrate activity is listed as “substrate of P-glycoprotein”.
